The target of one data set is T1, human MCHR1 (Homo sapiens, UniProt Q99705).
T1 construct: expressed in transfected cells; host or cells: CHO dhfr- cells, clone #4
The data set is described as follows: MCH receptor 1 antagonistic activity, Ca2+ mobilization assay. In kind it is cell-based. Particulars: CHO, test compound 0.1 μM; human MCHR1-expressing CHO cells (clone #4); ligand MCH(4-19) 2 nM; read-out: Inhibitory rate % (0.1 μM). The gist of the method: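 CHO dhfr− cells stably expressing human MCHR1 (clone #4) were used in a fluorometric Ca2+ mobilization assay. Test compounds were run at 0.1 μM, with antagonism expressed as percent inhibition.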
In general terms: A change in cytosolic calcium serves as a functional read-out for many receptors and channels.

Another data set concerns HepG2 cells. The data set is described as follows: PLsis (phospholipidosis) inducing potential, NBD-PE uptake. Format: cell-based. The note with it: 24 hr exposure, relative value to 10 μM Amiodarone, maximum value per unit concentration. The procedure: Evaluation of PLsis Inducing Potential
DMEM medium, L-glutamine, penicillin-streptomycin, pyruvic acid, and N-(7-nitrobenz-2-oxa-1,3-diazol-4-yl)-1,2-hexadecanoyl-sn-glycero-3-phosphoethanolamine triethylammonium salt (NBD-PE) were purchased from Invitrogen Corporation. As bovine serum albumin (BSA), a product of Thermo Trace Ltd. (Melbourne, Australia) was used, and as Amiodarone, a product of ICN (Costa Mesa, Calif.) was used. A test compound was used in the form of a 10 mM DMSO solution.
FBS was added at a final concentration of 5 vol % to DMEM medium supplemented with L-glutamine, pyruvic acid and penicillin-streptomycin and subjected to the experiment. Culture was performed using 5% carbon dioxide gas-95% air as a gas phase in a CO2 incubator at 37° C. HepG2 cells were suspended in a culture medium at 50×10^4 cells/mL, plated in a 96 well plate at 50 μL/well and precultured for 24 hr. After preculture, the culture medium was removed, a culture medium containing 60 μM NBD-PE was added at 50 μL/well, and a culture medium containing 0.6 μM or 20 μM test compounds were each added at 50 μL/well to HepG2 cells, and the cells were cultured for 24 hr. As a positive control, Amiodarone was used at a final concentration of 10 μM.
After exposure to the test compound for 24 hr, the fluorescence intensity (Ex. 485 nm, Em. 538 nm) of NBD-PE uptaken by the cells was measured by a fluorometer. The measurement value with addition of 0 μM test compound solution was subtracted as a blank, a relative value to the measurement 5 value with addition of 10 μM Amiodarone was calculated, and the maximum value per unit concentration of the test compound was obtained as a phospholipidosis (PLsis) inducing potential.

T1 sequence (Q99705 whole entry): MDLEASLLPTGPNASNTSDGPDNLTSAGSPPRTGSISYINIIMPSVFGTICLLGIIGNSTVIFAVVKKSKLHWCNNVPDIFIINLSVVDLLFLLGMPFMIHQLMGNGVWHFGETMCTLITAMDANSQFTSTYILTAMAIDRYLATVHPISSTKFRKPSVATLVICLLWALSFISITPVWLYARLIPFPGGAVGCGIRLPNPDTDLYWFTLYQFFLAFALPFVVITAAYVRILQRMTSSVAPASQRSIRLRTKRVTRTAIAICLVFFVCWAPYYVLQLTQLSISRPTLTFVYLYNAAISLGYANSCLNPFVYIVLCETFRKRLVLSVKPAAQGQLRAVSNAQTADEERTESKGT

On to `Cn1c(C2CC2)nc2ccc(-n3ccc(OCc4ccc(F)cc4)cc3=O)cc21` [Example 2, 1-(2-Cyclopropyl-1-methyl-1H-benzimidazol-6-yl)-4-((4-fluorobenzyl)oxy)pyridin-2(1H)-one], for which, on human MCHR1, the inhibition at 0.1 µM stood at 99%. The compound also returned a PLsis inducing potential in the data set with HepG2 cells of 2.2.
`CCc1nc2ccc(-n3ccc(OCc4ccc(F)cc4)cc3=O)cc2n1C` [Example 63, 1-(2-Ethyl-1-methyl-1H-benzimidazol-6-yl)-4-((4-fluorobenzyl)oxy)pyridin-2(1H)-one]: the inhibition at 0.1 µM on human MCHR1 is 100%. This compound also displayed a PLsis inducing potential in the data set with HepG2 cells of 1.6.
In the case of `Cc1nc2ccc(-n3ccc(OCc4ccc(F)cc4)cc3=O)cc2n1C` [Example 254, 1-(1,2-Dimethyl-1H-benzimidazol-6-yl)-4-((4-fluorobenzyl)oxy)pyridin-2(1H)-one], at human MCHR1, the inhibition at 0.1 µM was determined as 95%. The compound further gave a PLsis inducing potential in the data set on HepG2 cells of 1.7.
